From patent US11013748B2, “Budesonide prodrug” (University of Nizwa, priority 2019, dated 2021)
Converted amounts (≈) assume the structure as drawn.

What was measured:
colitis in rats = conditions: literature; cited from earlier work
[1] = Partition coefficient, Hansch method (n-octanol/buffer); assay type: physicochemical
Description: The Hansch method was used to determine the partition coefficient between the n-octanol and phosphate buffer (both 10 mL) system. Different pH systems of 1.2, 4.0, 6.8, and 7.4, and n-octanol and double distilled water (both 10 mL, pH 5.8) were prepared. The buffers, n-octanol, and double distilled water were added to a separating funnel. The phases were shaken for 60 minutes. to attain saturation. Ten milligrams of Bu and BuP were added to respective separators and were given 30 minutes of shaking for the drug to achieve sufficient distribution in both the phases. The separators were kept still for 5 minutes, and then the phases were separated. The phases were suitably diluted and analyzed (n=6) using the fiber optics with the UV detector set at 232 nm and 340 nm for Bu and BuP, respectively.

[2] = Solubility studies of Bu and BuP in buffer media; assay type: physicochemical; conditions: thermodynamic from solid
Description: Solubility studies of the pure Bu and prepared BuP were determined (n=6) by making saturated solutions of HCl buffer, phthalate buffer, phosphate buffer of pH 1.2, 4.0, 6.8 (with and without 10% w/v rat fecal content), and 7.4 respectively. The solutions, kept separately in a conical flask, were subjected to ultrasonic waves in an ultrasonic bath (Sonorex, Bandelin Electronic, Germany) for 30 minutes. Fiber optic probes were inserted at 0 and 30 minutes, and readings taken at 232 nm for Bu and 340 nm for BuP using the fiber optics system

logP ([1]; n-octanol / HCl buffer, pH 1.2) | logP ([1]; n-octanol / double distilled water, pH 5.8) | logP ([1]; n-octanol / phosphate buffer, pH 6.8) | logP ([1]; n-octanol / phosphate buffer, pH 7.4) | logP ([1]; n-octanol / phthalate buffer, pH 4.0) | solubility at 0 min ([2]; aqueous buffer, Phosphate buffer, pH 6.8) [mg/mL] | solubility at 30 min ([2]; aqueous buffer, Phosphate buffer, pH 6.8, 30 min) [mg/mL] | solubility at 0 min ([2]; aqueous buffer, Phosphate buffer, pH 7.4) [mg/mL] | solubility at 30 min ([2]; aqueous buffer, Phosphate buffer, pH 7.4, 30 min) [mg/mL] | solubility at 0 min ([2]; aqueous buffer, Phthalate buffer, pH 4.0) [mg/mL] | solubility at 30 min ([2]; aqueous buffer, Phthalate buffer, pH 4.0, 30 min) [mg/mL] | solubility at 0 min ([2]; phosphate buffer with 10% w/v rat fecal content, plasma or biological fluid, Phosphate buffer, pH 6.8 + rat fecal content) [mg/mL] | solubility at 30 min ([2]; phosphate buffer with 10% w/v rat fecal content, plasma or biological fluid, Phosphate buffer, pH 6.8 + rat fecal content, 30 min) [mg/mL] | solubility at 0 min ([2]; simulated gastric fluid, HCl buffer, pH 1.2) [mg/mL] | solubility at 30 min ([2]; simulated gastric fluid, HCl buffer, pH 1.2, 30 min ultrasonic bath) [mg/mL] | solubility at 0 min ([2]; Double distilled water, pH 5.8) [mg/mL] | solubility at 30 min ([2]; Double distilled water, pH 5.8, 30 min) [mg/mL] | Compound | effect on colitis in rats (colitis in rats)
 |  |  |  |  |  |  |  |  |  |  |  |  |  |  |  |  | CCCC1OC2CC3C4CCC5=CC(=O)C=CC5(C)C4C(O)CC3(C)C2(C(=O)COC2OC(C(=O)O)C(O)C(O)C2O)O1 [budesonide-beta-D-glucuronide] | accelerate the treatment of colitis in rats
3.12 ± 0.12 | 2.87 ± 1.05 | 2.51 ± 0.36 | 2.13 ± 1.09 | 3.01 ± 0.54 | 0.187 ± 0.00198 (≈ 435 µM) | 0.3569 ± 0.00099 (≈ 829 µM) | 0.231 ± 0.00212 (≈ 537 µM) | 0.4761 ± 0.00199 (≈ 1110 µM) | 0.0682 ± 0.00098 (≈ 158 µM) | 0.148 ± 0.00132 (≈ 344 µM) | 0.1871 ± 0.00089 | 0.3569 ± 0.00176 | 0.0251 ± 0.00143 (≈ 58.3 µM) | 0.08812 ± 0.00067 (≈ 205 µM) | 0.121 ± 0.00126 (≈ 281 µM) | 0.209 ± 0.00213 (≈ 486 µM) | CCCC1O[C@@H]2C[C@H]3[C@@H]4CCC5=CC(=O)C=C[C@]5(C)[C@H]4[C@@H](O)C[C@]3(C)[C@]2(C(=O)CO)O1 (stereo partly drawn) [Bu, budesonide] | 
